From patent US20080286771A1, “Method of Predicting the Responsiveness of a Tumour to Erbb Receptor Drugs” (priority 2004, published 2008)
Like-named read-outs stand apart in the source and are kept apart here.

Legend:
[1] = system: advanced NSCLC; settings: advanced NSCLC previously treated with chemotherapy, cited from earlier work
[2] = system: Calu 6 lung tumour cell line xenograft; experiment: Calu 6 xenograft response to gefitinib; type: in vivo; settings: Calu 6 xenograft in nude mice
From the text: (§1) This definition is based on the response observed when the tumour cell line is implanted into nude mice and grown as a xenograft. This definition has been used for all the pre-clinical studies described herein. Initially a small panel of six human tumour cell lines were assembled, three which are sensitive to gefitinib and three which are resistant to gefitinib in the xenograft setting defined above. The sensitive cell lines were; • 1.

[3] = system: HT29 colon tumour cell line xenograft; experiment: HT29 xenograft response to gefitinib; type: in vivo; settings: HT29 xenograft in nude mice
From the text: as §1

[4] = system: MDAMB231 breast tumour cell line xenograft; experiment: MDAMB231 xenograft response to gefitinib; type: in vivo, nude mice
From the text: (§2) This definition is based on the response observed when the tumour cell line is implanted into nude mice and grown as a xenograft. This definition has been used for all the pre-clinical studies described herein.

[5] = system: MKN45 gastric tumour cell line xenograft; experiment: MKN45 xenograft response to gefitinib; type: in vivo; settings: MKN45 xenograft in athymic mice, oral dosing once daily, mean tumour volume
From the text: as §1

[6] = system: GEO colon tumour cell line xenograft; experiment: GEO xenograft response to gefitinib; type: in vivo, nude mice
From the text: (§3) This definition is based on the response observed when the tumour cell line is implanted into nude mice and grown as a xenograft. This definition has been used for all the pre-clinical studies described herein. […] BT474 (ATCC No. HTB-20)-breast tumour cell line • b. DU145 (ATCC No. HTB-81)-[…] tumour cell line • c. MCF7 (ATCC No. HTB-22, sourced from ICRP (now CR-UK), London), -breast tumour cell line • d. GEO colon tumour cell line.

[7] = system: advanced NSCLC; settings: cited from earlier work; for Objective response rate (Complete Response+Partial Response): advanced NSCLC previously treated with chemotherapy
[8] = system: PC3 prostate tumour cell line xenograft; experiment: PC3 xenograft response to gefitinib; type: in vivo; settings: PC3 xenograft in nude mice
From the text: as §1

[9] = system: RT112 bladder tumour cell line xenograft; experiment: RT112 xenograft response to gefitinib; type: in vivo, nude mice
From the text: as §2

[10] = system: KB cell line xenograft; experiment: KB xenograft response to gefitinib; type: in vivo; settings: KB xenograft in nude mice
From the text: as §1

[11] = system: Lovo colon tumour cell line xenograft; experiment: Lovo xenograft response to gefitinib; type: in vivo; settings: Lovo xenograft in nude mice
From the text: as §1

[12] = system: MCF7 breast tumour cell line xenograft; experiment: MCF7 xenograft response to gefitinib; type: in vivo, nude mice
From the text: as §3

[13] = system: DU145 tumour cell line xenograft; experiment: DU145 xenograft response to gefitinib; type: in vivo, nude mice
From the text: as §3

[14] = system: HX147 lung tumour cell line xenograft; experiment: HX147 xenograft response to gefitinib; type: in vivo, nude mice
From the text: as §2

[15] = system: MiaPac2 pancreatic tumour cell line xenograft; experiment: MiaPac2 xenograft response to gefitinib; type: in vivo, nude mice
From the text: as §2

[16] = system: SW620 colon tumour cell line xenograft; experiment: SW620 xenograft response to gefitinib; type: in vivo, nude mice
From the text: as §2

[17] = system: A431 epidermoid cell line xenograft; experiment: A431 xenograft response to gefitinib; type: in vivo, nude mice
From the text: as §3

[18] = system: BT474 breast tumour cell line xenograft; experiment: BT474 xenograft response to gefitinib; type: in vivo, nude mice
From the text: as §3

[19] = system: A549 lung tumour cell line xenograft; experiment: A549 xenograft response to gefitinib; type: in vivo; settings: A549 xenograft in athymic mice, oral dosing once daily, mean tumour volume
From the text: as §3

## C#Cc1cccc(Nc2ncnc3cc(OCCOC)c(OCCOC)cc23)c1 [erlotinib]
[1]; across the population
  prolongs survival: ~2 months
[1]
  reduction in risk of death at one year: 41%

## COc1cc2ncnc(Nc3ccc(F)c(Cl)c3)c2cc1OCCCN1CCOCC1 [gefitinib, N-(3-chloro-4-fluorophenyl)-7-methoxy-6-(3-morpholinopropoxy)quinazolin-4-amine]
[2]
  response when grown as a xenograft (sensitive/resistant): resistant
[3]
  response when grown as a xenograft (sensitive/resistant): sensitive
[4]
  response when grown as a xenograft (sensitive/resistant): resistant
[5]
  response when grown as a xenograft (sensitive/resistant): resistant
[6]
  response when grown as a xenograft (sensitive/resistant): sensitive
[7]; IDEAL 1 trial, predominantly Japanese
  Objective response rate (Complete Response+Partial Response): 18.4%
[7]; IDEAL 2 trial, predominantly European-derived population
  Objective response rate (Complete Response+Partial Response): 11.8%
[7]; IDEAL trials
  patients overall benefit (objective response, stable disease and/or symptom improvement): approximately 50%
[7]; single agent, advanced NSCLC patients
  toxicity: limited toxicity
[8]
  response when grown as a xenograft (sensitive/resistant): resistant
[9]
  response when grown as a xenograft (sensitive/resistant): resistant
[10]
  response when grown as a xenograft (sensitive/resistant): sensitive
[11]
  response when grown as a xenograft (sensitive/resistant): sensitive
[12]
  response when grown as a xenograft (sensitive/resistant): sensitive
[13]
  response when grown as a xenograft (sensitive/resistant): sensitive
[14]
  response when grown as a xenograft (sensitive/resistant): resistant
[15]
  response when grown as a xenograft (sensitive/resistant): resistant
[16]
  response when grown as a xenograft (sensitive/resistant): resistant
[17]
  response when grown as a xenograft (sensitive/resistant): sensitive
[18]
  response when grown as a xenograft (sensitive/resistant): sensitive
[19]
  response when grown as a xenograft (sensitive/resistant): sensitive
